Assay results taken from ChEMBL document CHEMBL1909046, “DrugMatrix in vitro pharmacology data”.

What was measured:
[1] = biological target: Adenosine receptor A2a (Homo sapiens, UniProt P29274); experiment: DRUGMATRIX: Adenosine A2A radioligand binding (ligand: […]); format: cell membranes, HEK293, Membrane; conditions: hek293; Not Active = under 50% inhibition at 10 µM
[2] = DRUGMATRIX: GABAA, Muscimol, Central radioligand binding (ligand: [3H] Muscimol); format: cell membranes, Rattus norvegicus, Wistar, Brain, Membrane; conditions: Not Active = under 50% inhibition at 10 µM
[3] = biological target: Melanocortin receptor 3 (Homo sapiens, UniProt P41968); format: cell membranes, Membrane; conditions: hek293; further: in other assays of this panel Not Active means under 50% inhibition at 10 µM
Melanocortin receptor 3, sequence (P41968 whole entry): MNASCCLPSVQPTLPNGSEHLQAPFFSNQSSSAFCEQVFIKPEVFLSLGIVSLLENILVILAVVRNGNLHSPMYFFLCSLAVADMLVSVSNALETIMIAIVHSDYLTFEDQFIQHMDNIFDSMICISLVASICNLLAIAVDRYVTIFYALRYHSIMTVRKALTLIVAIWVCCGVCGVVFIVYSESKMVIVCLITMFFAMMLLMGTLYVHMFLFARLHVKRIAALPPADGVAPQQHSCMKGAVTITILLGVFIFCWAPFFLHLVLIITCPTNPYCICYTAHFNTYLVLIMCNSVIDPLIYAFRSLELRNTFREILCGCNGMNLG

[4] = biological target: Delta-type opioid receptor (Homo sapiens, UniProt P41143); format: cell membranes, HEK293, Membrane; conditions: hek293; further: in other assays of this panel Not Active means under 50% inhibition at 10 µM
Delta-type opioid receptor, sequence (P41143 whole entry): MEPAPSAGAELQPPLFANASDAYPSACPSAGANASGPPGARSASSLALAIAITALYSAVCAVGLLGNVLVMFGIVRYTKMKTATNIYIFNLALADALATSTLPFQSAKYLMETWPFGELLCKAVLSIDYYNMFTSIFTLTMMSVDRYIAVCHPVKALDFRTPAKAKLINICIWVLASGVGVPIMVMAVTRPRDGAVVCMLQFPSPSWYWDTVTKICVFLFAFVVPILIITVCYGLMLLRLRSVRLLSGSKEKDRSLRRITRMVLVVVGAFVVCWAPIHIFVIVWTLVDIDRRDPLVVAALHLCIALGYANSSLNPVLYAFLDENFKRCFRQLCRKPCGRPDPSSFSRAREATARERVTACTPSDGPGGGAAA

[5] = biological target: T1, Angiotensin-converting enzyme (Oryctolagus cuniculus, UniProt P12822); format: tissue-based, Lung;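 further: enzymatic inhibition of angiotensin-converting enzyme measured with FAPGG as the substrate; in other assays of this panel Not Active means under 50% inhibition at 10 µM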
T1 sequence (P12822 whole entry): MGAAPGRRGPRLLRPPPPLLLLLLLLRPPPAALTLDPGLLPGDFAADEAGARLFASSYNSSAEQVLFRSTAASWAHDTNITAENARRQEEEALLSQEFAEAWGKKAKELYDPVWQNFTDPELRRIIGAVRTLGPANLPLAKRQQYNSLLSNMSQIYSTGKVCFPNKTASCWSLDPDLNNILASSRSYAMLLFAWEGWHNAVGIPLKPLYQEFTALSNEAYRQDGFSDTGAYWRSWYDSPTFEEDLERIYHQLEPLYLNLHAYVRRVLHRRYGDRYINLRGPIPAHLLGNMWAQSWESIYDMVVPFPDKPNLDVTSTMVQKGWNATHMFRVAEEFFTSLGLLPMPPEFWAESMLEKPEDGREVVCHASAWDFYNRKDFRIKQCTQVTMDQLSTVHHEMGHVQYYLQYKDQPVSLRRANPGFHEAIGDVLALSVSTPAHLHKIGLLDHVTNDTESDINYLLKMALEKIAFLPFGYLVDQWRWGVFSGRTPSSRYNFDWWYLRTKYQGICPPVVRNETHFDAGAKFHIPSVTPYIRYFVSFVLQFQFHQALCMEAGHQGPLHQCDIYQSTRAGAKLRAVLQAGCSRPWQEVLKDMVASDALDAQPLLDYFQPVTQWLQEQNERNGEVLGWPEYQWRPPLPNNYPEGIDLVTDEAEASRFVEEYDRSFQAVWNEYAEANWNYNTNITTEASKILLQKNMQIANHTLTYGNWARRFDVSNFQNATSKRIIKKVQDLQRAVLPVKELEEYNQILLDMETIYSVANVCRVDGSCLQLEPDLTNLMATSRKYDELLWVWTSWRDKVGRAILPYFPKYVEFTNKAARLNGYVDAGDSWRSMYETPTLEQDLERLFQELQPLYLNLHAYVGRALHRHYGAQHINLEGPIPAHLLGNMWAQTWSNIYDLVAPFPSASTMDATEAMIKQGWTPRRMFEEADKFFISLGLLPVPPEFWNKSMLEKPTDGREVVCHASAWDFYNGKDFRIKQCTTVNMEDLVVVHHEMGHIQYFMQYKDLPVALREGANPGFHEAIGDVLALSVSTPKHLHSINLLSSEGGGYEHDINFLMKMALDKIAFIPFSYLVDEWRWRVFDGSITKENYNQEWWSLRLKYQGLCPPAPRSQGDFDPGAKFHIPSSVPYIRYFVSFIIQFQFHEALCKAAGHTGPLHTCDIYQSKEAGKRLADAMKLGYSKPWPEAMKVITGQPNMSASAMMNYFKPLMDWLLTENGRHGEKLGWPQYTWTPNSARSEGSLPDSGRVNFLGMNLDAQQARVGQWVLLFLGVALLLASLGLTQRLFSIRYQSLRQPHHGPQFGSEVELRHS

[6] = DRUGMATRIX: Phosphodiesterase PDE4 enzyme inhibition (substrate: [3H]cAMP + cAMP); conditions: u-937; Not Active = under 50% inhibition at 10 µM
[7] = DRUGMATRIX: Glutamate, NMDA, Phencyclidine radioligand binding (ligand: [3H] TCP); format: cell membranes, Rattus norvegicus, Wistar, Cerebral cortex, Membrane; conditions: Not Active = under 50% inhibition at 10 µM
[8] = DRUGMATRIX: Leukotriene, BLT (LTB4) radioligand binding (ligand: [3H]LTB4); format: cell membranes, Membrane; conditions: u-937; Not Active = under 50% inhibition at 10 µM

Adenosine receptor A2a, sequence (P29274 whole entry): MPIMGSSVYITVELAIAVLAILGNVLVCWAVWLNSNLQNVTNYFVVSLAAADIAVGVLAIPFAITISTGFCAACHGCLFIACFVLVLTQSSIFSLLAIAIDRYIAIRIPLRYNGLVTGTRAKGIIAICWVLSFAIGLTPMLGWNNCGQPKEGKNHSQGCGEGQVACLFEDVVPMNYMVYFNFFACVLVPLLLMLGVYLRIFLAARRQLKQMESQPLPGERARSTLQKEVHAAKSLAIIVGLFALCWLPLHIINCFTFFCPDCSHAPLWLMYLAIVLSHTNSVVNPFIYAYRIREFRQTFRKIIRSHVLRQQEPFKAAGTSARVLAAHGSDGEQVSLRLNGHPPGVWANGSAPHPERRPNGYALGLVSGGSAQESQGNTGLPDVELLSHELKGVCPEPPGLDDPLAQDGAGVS

CCOC(=O)C1=C(C)NC(C)=C(C(=O)OC)C1c1cccc([N+](=O)[O-])c1 (stereo not given) [NITRENDIPINE]
Not Active: IC50 [1] | IC50 [2] | Ki [2] | IC50 [3] | IC50 [4] | IC50 [5] | IC50 [6] | Ki [6] | IC50 [7] | Ki [7] | IC50 [8] | Ki [8]

O=C1CC[C@H](N2C(=O)c3ccccc3C2=O)C(=O)N1
Not Active: IC50 [1] | IC50 [2] | Ki [2] | IC50 [3] | IC50 [4] | IC50 [5] | IC50 [6] | Ki [6] | IC50 [7] | Ki [7] | IC50 [8] | Ki [8]

C/C=C/C[C@@H](C)[C@@H](O)[C@H]1C(=O)N[C@@H](CC)C(=O)N(C)CC(=O)N(C)[C@@H](CC(C)C)C(=O)N[C@@H](C(C)C)C(=O)N(C)[C@@H](CC(C)C)C(=O)N[C@@H](C)C(=O)N[C@H](C)C(=O)N(C)[C@@H](CC(C)C)C(=O)N(C)[C@@H](CC(C)C)C(=O)N(C)[C@@H](C(C)C)C(=O)N1C [CYCLOSPORINE]
Not Active: IC50 [1] | IC50 [2] | Ki [2] | IC50 [3] | IC50 [4] | IC50 [5] | IC50 [6] | Ki [6] | IC50 [7] | Ki [7] | IC50 [8] | Ki [8]

CC(C)Cc1ccc(C(C)C(=O)O)cc1 (stereo not given) [IBUPROFEN]
Not Active: IC50 [1] | IC50 [2] | Ki [2] | IC50 [3] | IC50 [4] | IC50 [5] | IC50 [6] | Ki [6] | IC50 [7] | Ki [7] | IC50 [8] | Ki [8]

CCCCN1CCCCC1C(=O)Nc1c(C)cccc1C.Cl (stereo not given) [BUPIVACAINE HYDROCHLORIDE]
Not Active: IC50 [1] | IC50 [2] | Ki [2] | IC50 [3] | IC50 [4] | IC50 [5] | IC50 [6] | Ki [6] | IC50 [7] | Ki [7] | IC50 [8] | Ki [8]
